Test results reported in US20260092071A1, “COMPOUNDS AND COMPOSITIONS AS SMARCA2/4 DEGRADERS AND USES THEREOF” (REGENTS OF THE UNIVERSITY OF MICHIGAN, priority 2022, published 2026).

Assays:
[1] = target: SMARCA2 (Homo sapiens, UniProt P51531); test: HiBit assay in engineered HT1080 CRISPR knock-in cell, 6 hrs (B series), SMARCA2; assay type: cell-based; conditions: 6 hrs incubation; for DC50: HT1080 CRISPR knock-in cells, read-out: SMARC A2 HT1080 HiBit DC50; for Dmax: HT-1080, HT1080 CRISPR knock-in cells, read-out: SMARC A2 HT1080 HiBit Dmax (%)
How it was run: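 Engineered HT1080 knock-in cells, 2000 cells/well, 6 hrs compound exposure, 37° C/5% CO2, 0.1% DMSO final. Lytic detection: LgBiT 1:100 plus HiBiT substrate 1:50 in lytic buffer, 10 min shake at RT, luminescence read.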

[2] = target: SMARCA4 (Homo sapiens, UniProt P51532); test: HiBit assay in engineered HT1080 CRISPR knock-in cell, 6 hrs (B series), SMARCA4; assay type: cell-based; conditions: 6 hrs incubation; for DC50: HT1080 CRISPR knock-in cells, read-out: SMARC A4 HT1080 HiBit DC50; for Dmax: HT-1080, HT1080 CRISPR knock-in cells, read-out: SMARC A4 HT1080 HiBit Dmax(%)
How it was run: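 Using a 6 hr treatment window at 37° C and 5% CO2, tagged HT1080 knock-in cells were exposed to test compounds with DMSO vehicle held at 0.1%. Signal came from lytic LgBiT/substrate reagent added after incubation, with control wells lacking LgBiT, and was read as luminescence.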

SMARCA2, sequence (P51531 whole entry): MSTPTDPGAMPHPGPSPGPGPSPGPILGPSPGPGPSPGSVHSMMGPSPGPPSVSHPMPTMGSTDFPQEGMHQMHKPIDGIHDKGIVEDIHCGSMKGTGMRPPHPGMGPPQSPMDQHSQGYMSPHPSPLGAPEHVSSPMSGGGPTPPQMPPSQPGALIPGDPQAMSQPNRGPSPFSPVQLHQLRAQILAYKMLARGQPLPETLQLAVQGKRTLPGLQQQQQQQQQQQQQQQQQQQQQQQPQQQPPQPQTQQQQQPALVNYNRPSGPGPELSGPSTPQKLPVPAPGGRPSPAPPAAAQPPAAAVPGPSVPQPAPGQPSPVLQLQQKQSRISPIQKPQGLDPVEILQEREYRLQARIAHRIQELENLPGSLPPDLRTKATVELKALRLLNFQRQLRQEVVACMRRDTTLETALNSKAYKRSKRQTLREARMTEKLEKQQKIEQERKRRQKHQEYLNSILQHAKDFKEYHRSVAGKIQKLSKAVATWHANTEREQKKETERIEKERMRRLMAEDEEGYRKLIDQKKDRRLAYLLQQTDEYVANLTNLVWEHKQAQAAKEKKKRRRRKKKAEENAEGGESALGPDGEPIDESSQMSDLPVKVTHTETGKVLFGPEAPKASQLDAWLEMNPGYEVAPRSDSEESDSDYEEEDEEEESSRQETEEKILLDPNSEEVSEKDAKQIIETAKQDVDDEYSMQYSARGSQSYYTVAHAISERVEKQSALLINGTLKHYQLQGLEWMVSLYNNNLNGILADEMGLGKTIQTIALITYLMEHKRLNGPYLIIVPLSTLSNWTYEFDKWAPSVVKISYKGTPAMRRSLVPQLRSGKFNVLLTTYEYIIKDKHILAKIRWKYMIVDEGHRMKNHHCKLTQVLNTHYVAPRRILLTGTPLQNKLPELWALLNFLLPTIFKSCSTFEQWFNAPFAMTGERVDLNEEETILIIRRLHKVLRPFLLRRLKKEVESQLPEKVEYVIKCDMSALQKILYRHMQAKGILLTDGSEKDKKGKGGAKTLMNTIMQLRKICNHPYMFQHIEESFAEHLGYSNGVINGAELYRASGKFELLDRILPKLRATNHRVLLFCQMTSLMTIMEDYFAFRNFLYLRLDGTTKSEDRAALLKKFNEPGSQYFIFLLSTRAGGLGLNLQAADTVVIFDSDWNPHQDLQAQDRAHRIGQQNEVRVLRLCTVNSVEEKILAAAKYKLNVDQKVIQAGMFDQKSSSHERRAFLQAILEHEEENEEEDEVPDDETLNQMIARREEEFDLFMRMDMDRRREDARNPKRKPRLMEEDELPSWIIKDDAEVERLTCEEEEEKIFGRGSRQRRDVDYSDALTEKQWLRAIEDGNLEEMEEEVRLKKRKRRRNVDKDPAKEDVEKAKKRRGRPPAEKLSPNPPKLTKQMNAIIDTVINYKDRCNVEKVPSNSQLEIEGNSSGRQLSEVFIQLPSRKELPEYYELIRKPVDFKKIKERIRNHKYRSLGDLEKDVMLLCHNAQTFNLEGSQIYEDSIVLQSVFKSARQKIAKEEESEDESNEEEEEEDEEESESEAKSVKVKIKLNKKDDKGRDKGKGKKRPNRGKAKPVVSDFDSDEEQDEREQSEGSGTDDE
SMARCA4, sequence (P51532 whole entry): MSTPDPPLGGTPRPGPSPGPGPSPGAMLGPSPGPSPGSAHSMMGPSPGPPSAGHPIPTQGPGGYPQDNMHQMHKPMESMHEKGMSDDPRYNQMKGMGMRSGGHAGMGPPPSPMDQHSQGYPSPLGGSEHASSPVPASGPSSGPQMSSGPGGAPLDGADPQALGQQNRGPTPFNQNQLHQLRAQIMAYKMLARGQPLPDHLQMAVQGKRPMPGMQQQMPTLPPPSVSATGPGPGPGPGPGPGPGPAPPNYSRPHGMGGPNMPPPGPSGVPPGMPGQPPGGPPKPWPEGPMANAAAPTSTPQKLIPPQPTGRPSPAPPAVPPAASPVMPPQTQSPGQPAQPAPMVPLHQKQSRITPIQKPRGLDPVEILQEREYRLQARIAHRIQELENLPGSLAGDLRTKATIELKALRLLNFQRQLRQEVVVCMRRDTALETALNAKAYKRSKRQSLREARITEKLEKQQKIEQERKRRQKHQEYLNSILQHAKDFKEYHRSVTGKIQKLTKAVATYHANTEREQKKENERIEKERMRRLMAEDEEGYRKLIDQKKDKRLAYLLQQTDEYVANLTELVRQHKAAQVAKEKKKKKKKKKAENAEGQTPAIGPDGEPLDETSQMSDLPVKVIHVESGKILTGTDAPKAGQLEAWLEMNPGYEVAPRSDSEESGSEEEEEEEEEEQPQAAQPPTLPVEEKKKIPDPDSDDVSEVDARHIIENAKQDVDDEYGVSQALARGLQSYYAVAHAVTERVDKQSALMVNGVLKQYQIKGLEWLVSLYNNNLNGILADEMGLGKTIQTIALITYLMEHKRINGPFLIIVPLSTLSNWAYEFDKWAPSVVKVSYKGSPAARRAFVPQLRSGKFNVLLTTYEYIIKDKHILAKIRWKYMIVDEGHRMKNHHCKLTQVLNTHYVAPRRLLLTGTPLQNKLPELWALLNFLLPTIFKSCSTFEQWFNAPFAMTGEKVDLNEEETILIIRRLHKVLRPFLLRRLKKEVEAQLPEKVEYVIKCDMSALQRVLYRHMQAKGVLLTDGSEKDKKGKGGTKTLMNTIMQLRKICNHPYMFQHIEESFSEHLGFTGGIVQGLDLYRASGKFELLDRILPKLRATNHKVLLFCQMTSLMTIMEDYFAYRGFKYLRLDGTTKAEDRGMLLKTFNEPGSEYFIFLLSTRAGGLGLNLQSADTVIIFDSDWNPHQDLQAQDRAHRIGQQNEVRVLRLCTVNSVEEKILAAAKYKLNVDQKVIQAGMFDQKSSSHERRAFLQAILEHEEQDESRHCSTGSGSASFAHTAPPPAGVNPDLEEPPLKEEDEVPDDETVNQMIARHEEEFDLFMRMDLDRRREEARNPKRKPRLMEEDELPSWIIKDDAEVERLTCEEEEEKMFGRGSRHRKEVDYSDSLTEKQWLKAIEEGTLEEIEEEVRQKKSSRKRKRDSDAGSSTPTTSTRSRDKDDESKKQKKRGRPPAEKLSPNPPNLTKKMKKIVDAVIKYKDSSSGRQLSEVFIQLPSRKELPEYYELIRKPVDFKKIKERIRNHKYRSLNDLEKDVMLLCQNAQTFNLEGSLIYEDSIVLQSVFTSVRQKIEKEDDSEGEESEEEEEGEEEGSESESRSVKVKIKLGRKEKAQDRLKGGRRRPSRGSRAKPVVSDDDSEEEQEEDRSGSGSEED

SMILES | DC50 [1] [nM] | Dmax [1] [%] | DC50 [2] [nM] | Dmax [2] [%]
CNC(=O)[C@@H]1C[C@@H](O)CN1C(=O)[C@H](C(C)C)n1cc([C@H]2CC[C@H](CN3CCC(c4ccc5c(c4)-n4c(nc(=O)c6c(Cl)cccc64)C5(C)C)CC3)CC2)nn1 [Compound B59, (2S,4R)-1-((S)-2-(4-((1r,4S)-4-((4-(4-chloro-7,7-dimethyl-5-oxo-5,7-dihydroindolo[1,2-a]quinazolin-10-yl)piperidin-1-yl)methyl)cyclohexyl)-1H-1,2,3-triazol-1-yl)-3-methylbutanoyl)-4-hydroxy-N-methylpyrrolidine-2-carboxamide] | 100 to 500 | 50 to 69 | > 1000 | < 50
Cc1ncsc1-c1ccc([C@H](C)NC(=O)[C@@H]2C[C@@H](O)CN2C(=O)[C@@H](NC(=O)C2CCC(CN3CCC(c4ccc5c(c4)C(C)(C(F)(F)F)c4nc(=O)c6c(Cl)cccc6n4-5)CC3)CC2)C(C)(C)C)cc1 (stereo partly drawn) [Compound B76, (2S,4R)-1-((2S)-2-((1r,4S)-4-((4-(4-chloro-7-methyl-5-oxo-7-(trifluoromethyl)-5,7-dihydroindolo[1,2-a]quinazolin-9-yl)piperidin-1-yl)methyl)cyclohexane-1-carboxamido)-3,3-dimethylbutanoyl)-4-hydroxy-N-((S)-1-(4-(4-methylthiazol-5-yl)phenyl)ethyl)pyrrolidine-2-carboxamide] | 100 to 500 | 70 to 90 | 100 to 500 | < 50
Cc1ncsc1-c1ccc(C(CN2CCOCC2)NC(=O)[C@@H]2C[C@@H](O)CN2C(=O)[C@H](c2cc(N3CCC(CN4CCN(c5ccc6c(c5)-n5c(nc(=O)c7c(Cl)cccc75)C65CCCCC5)CC4)CC3)no2)C(C)C)cc1 (stereo in doubt) [Compound B160, (2S,4R)-1-((S)-2-(3-(4-((4-(4′-chloro-5′-oxo-5′H-spiro[cyclohexane-1,7′-indolo[1,2-a]quinazolin]-10′-yl)piperazin-1-yl)methyl)piperidin-1-yl)isoxazol-5-yl)-3-methylbutanoyl)-4-hydroxy-N-((S)-1-(4-(4-methylthiazol-5-yl)phenyl)-2-morpholinoethyl)pyrrolidine-2-carboxamide] | < 100 | > 90 | < 100 | 50 to 69
Cc1ncsc1-c1ccc([C@H](C)NC(=O)[C@@H]2C[C@@H](O)CN2C(=O)[C@@H](c2cc(OCC3(CN4CCC(c5ccc6c(c5)-n5c(nc(=O)c7c(Cl)cccc75)C6(C)C)CC4)CC3)no2)C(C)C)cc1 [Compound B91, (2S,4R)-1-((R)-2-(3-((1-((4-(4-chloro-7,7-dimethyl-5-oxo-5,7-dihydroindolo[1,2-a]quinazolin-10-yl)piperidin-1-yl)methyl)cyclopropyl)methoxy)isoxazol-5-yl)-3-methylbutanoyl)-4-hydroxy-N-((S)-1-(4-(4-methylthiazol-5-yl)phenyl)ethyl)pyrrolidine-2-carboxamide] | < 100 | > 90 | < 100 | > 90
CC(C)[C@@H](C(=O)N1C[C@H](O)C[C@H]1C(=O)N[C@@H](C)c1ccc(-c2scnc2C#CCN2CCOCC2)cc1)n1cc([C@H]2CC[C@H](CN3CCN(c4ccc5c(c4)-n4c(nc(=O)c6c(Cl)cccc64)C5(C)C)CC3)CC2)nn1 [Compound B136, (2S,4R)-1-((S)-2-(4-((1r,4S)-4-((4-(4-chloro-7,7-dimethyl-5-oxo-5,7-dihydroindolo[1,2-a]quinazolin-10-yl)piperazin-1-yl)methyl)cyclohexyl)-1H-1,2,3-triazol-1-yl)-3-methylbutanoyl)-4-hydroxy-N-((S)-1-(4-(4-(3-morpholinoprop-1-yn-1-yl)thiazol-5-yl)phenyl)ethyl)pyrrolidine-2-carboxamide] | < 100 | > 90 | < 100 | 70 to 90
Cc1ncsc1-c1ccc([C@H](CN2CCOCC2)NC(=O)[C@@H]2C[C@@H](O)CN2C(=O)C(c2cc(N3CCC(CN4CCC(c5ccc6c(c5)-n5c(nc(=O)c7c(Cl)cccc75)C6(C)C)CC4)CC3)no2)C(C)C)cc1 (stereo partly drawn) [Compound B115, (2S,4R)-1-(2-(3-(4-((4-(4-chloro-7,7-dimethyl-5-oxo-5,7-dihydroindolo[1,2-a]quinazolin-10-yl)piperidin-1-yl)methyl)piperidin-1-yl)isoxazol-5-yl)-3-methylbutanoyl)-4-hydroxy-N-((R)-1-(4-(4-methylthiazol-5-yl)phenyl)-2-morpholinoethyl)pyrrolidine-2-carboxamide] | < 100 | > 90 | < 100 | 70 to 90

Results, then the compound that gave them:

DC50 [1] [nM] | Dmax [1] [%] | DC50 [2] [nM] | Dmax [2] [%] | SMILES
< 100 | > 90 | < 100 | < 50 | Cc1ncsc1-c1ccc([C@H](C)NC(=O)[C@@H]2C[C@@H](O)CN2C(=O)[C@H](C(C)C)n2cc(C3CCC(c4cccc5c4C(C)(C)c4nc(=O)c6c(Cl)cccc6n4-5)CC3)nn2)cc1 (stereo partly drawn) [Compound B137, (2S,4R)-1-((S)-2-(4-(4-(4-chloro-7,7-dimethyl-5-oxo-5,7-dihydroindolo[1,2-a]quinazolin-8-yl)cyclohexyl)-1H-1,2,3-triazol-1-yl)-3-methylbutanoyl)-4-hydroxy-N-((S)-1-(4-(4-methylthiazol-5-yl)phenyl)ethyl)pyrrolidine-2-carboxamide]
< 100 | 70 to 90 | 100 to 500 | < 50 | Cc1ncsc1-c1ccc(C2(NC(=O)[C@@H]3C[C@@H](O)CN3C(=O)[C@@H](n3cc([C@H]4CC[C@H](CN5CCC(c6ccc7c(c6)-n6c(nc(=O)c8c(Cl)cccc86)C7(C)C)CC5)CC4)nn3)C(C)(C)C)CN(C)C2)cc1 [Compound B124, (2S,4R)-1-((S)-2-(4-((1r,4S)-4-((4-(4-chloro-7,7-dimethyl-5-oxo-5,7-dihydroindolo[1,2-a]quinazolin-10-yl)piperidin-1-yl)methyl)cyclohexyl)-1H-1,2,3-triazol-1-yl)-3,3-dimethylbutanoyl)-4-hydroxy-N-(1-methyl-3-(4-(4-methylthiazol-5-yl)phenyl)azetidin-3-yl)pyrrolidine-2-carboxamide]
< 100 | > 90 | < 100 | 70 to 90 | C#Cc1ccc([C@H](CN2CCOCC2)NC(=O)[C@@H]2C[C@@H](O)CN2C(=O)[C@@H](n2cc([C@H]3CC[C@H](CN4CCC(c5ccc6c(c5)-n5c(nc(=O)c7c(Cl)cccc75)C6(C)C)CC4)CC3)nn2)C(C)(C)C)cc1 [Compound B102, (2S,4R)-1-((S)-2-(4-((1r,4S)-4-((4-(4-chloro-7,7-dimethyl-5-oxo-5,7-dihydroindolo[1,2-a]quinazolin-10-yl)piperidin-1-yl)methyl)cyclohexyl)-1H-1,2,3-triazol-1-yl)-3,3-dimethylbutanoyl)-N—((R)-1-(4-ethynylphenyl)-2-morpholinoethyl)-4-hydroxypyrrolidine-2-carboxamide]
< 100 | > 90 | 100 to 500 | 50 to 69 | Cc1ncsc1-c1ccc2c(c1)CCC[C@@H]2NC(=O)[C@@H]1C[C@@H](O)CN1C(=O)[C@@H](n1cc([C@H]2CC[C@H](CN3CCC(c4ccc5c(c4)-n4c(nc(=O)c6c(Cl)cccc64)C5(C)C)CC3)CC2)nn1)C(C)(C)C [Compound B146, (2S,4R)-1-((S)-2-(4-((1r,4S)-4-((4-(4-chloro-7,7-dimethyl-5-oxo-5,7-dihydroindolo[1,2-a]quinazolin-10-yl)piperidin-1-yl)methyl)cyclohexyl)-1H-1,2,3-triazol-1-yl)-3,3-dimethylbutanoyl)-4-hydroxy-N-((S)-6-(4-methylthiazol-5-yl)-1,2,3,4-tetrahydronaphthalen-1-yl)pyrrolidine-2-carboxamide]
< 100 | > 90 | < 100 | 70 to 90 | Cc1ncsc1-c1ccc([C@H](C)NC(=O)[C@@H]2C[C@@H](O)CN2C(=O)[C@@H](c2cc(N3CCC(CN4CCC(c5cccc6c5C(C)(C)c5nc(=O)c7c(Cl)cccc7n5-6)CC4)CC3)no2)C(C)C)cc1 [Compound B10, (2S,4R)-1-((R)-2-(3-(4-((4-(4-chloro-7,7-dimethyl-5-oxo-5,7-dihydroindolo[1,2-a]quinazolin-8-yl)piperidin-1-yl)methyl)piperidin-1-yl)isoxazol-5-yl)-3-methylbutanoyl)-4-hydroxy-N—((S)-1-(4-(4-methylthiazol-5-yl)phenyl)ethyl)pyrrolidine-2-carboxamide]
< 100 | > 90 | 501 to 1000 | < 50 | Cc1ncsc1-c1ccc([C@H](C)NC(=O)[C@@H]2C[C@@H](O)CN2C(=O)[C@@H](n2cc([C@H](C)N3CCC(c4ccc5c(c4)-n4c(nc(=O)c6c(Cl)cccc64)C5(C)C)CC3)nn2)C(C)(C)C)cc1 [Compound B68, (2S,4R)-1-((S)-2-(4-((S)-1-(4-(4-chloro-7,7-dimethyl-5-oxo-5,7-dihydroindolo[1,2-a]quinazolin-10-yl)piperidin-1-yl)ethyl)-1H-1,2,3-triazol-1-yl)-3,3-dimethylbutanoyl)-4-hydroxy-N-((S)-1-(4-(4-methylthiazol-5-yl)phenyl)ethyl)pyrrolidine-2-carboxamide]
